Laboratory results reported in ChEMBL document CHEMBL5303573, “Mapping human microbiome drug metabolism by gut bacteria and their genes” (Nature, 2019).

Experiments:
[1] = The drug is tested on Bacteroides pectinophilus strain: ATCC43243 for biotransformation. The drug concentrations were measured before and after a 12-h incubation by liquid-chromatography-coupled mass spectrometry (LC–MS); conditions: 2 µM
[2] = molecular target: T1, Nitroreductase-like protein (Bacteroides thetaiotaomicron, UniProt Q8AB93); experiment: (§1) The drug is tested on Bacteroides thetaiotaomicron strain: VPI-5482 for biotransformation. The drug concentrations were measured before and after a 12-h incubation by liquid-chromatography-coupled mass spectrometry (LC–MS); type: ADME; set-up: dose 2 uM; conditions: 2 µM
T1 sequence (Q8AB93 whole entry): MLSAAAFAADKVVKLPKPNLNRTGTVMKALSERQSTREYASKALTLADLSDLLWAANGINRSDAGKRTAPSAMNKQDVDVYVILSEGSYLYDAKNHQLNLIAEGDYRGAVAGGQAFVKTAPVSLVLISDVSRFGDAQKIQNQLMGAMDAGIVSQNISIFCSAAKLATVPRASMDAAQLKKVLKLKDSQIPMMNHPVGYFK

[3] = molecular target: T2, Xylanase (Bacteroides thetaiotaomicron, UniProt Q8A8H5); experiment: as §1; type: ADME; set-up: dose 2 uM; conditions: 2 µM
T2 sequence (Q8A8H5 whole entry): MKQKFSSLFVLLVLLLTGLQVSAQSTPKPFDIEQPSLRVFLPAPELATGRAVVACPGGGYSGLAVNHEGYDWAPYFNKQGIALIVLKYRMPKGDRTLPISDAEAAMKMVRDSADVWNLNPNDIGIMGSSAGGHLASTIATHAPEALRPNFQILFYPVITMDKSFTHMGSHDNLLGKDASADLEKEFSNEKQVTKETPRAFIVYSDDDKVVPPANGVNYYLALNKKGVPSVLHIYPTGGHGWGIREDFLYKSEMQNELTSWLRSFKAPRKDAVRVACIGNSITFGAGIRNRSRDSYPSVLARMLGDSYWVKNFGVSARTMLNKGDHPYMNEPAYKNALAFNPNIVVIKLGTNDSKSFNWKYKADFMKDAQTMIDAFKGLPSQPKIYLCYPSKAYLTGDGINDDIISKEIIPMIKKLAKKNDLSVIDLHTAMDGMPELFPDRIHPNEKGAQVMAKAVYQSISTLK

[4] = bacteroides intestinalis, 12 h, 2 µM
Description: The drug is tested on Bacteroides intestinalis strain: DSM17393 for biotransformation. The drug concentrations were measured before and after a 12-h incubation by liquid-chromatography-coupled mass spectrometry (LC–MS)

[5] = The drug is tested on Ruminococcus gnavus strain: ATCC29149 for biotransformation. The drug concentrations were measured before and after a 12-h incubation by liquid-chromatography-coupled mass spectrometry (LC–MS); conditions: mediterraneibacter gnavus, 2 µM
[6] = parabacteroides distasonis, 12 h, 2 µM
Description: The drug is tested on Parabacteroides distasonis strain: ATCC8503 for biotransformation. The drug concentrations were measured before and after a 12-h incubation by liquid-chromatography-coupled mass spectrometry (LC–MS)

[7] = molecular target: T3, Flavodoxin (Collinsella aerofaciens, UniProt A4ED08); experiment: (§2) The drug is tested on Collinsella aerofaciens strain: ATCC25986 for biotransformation. The drug concentrations were measured before and after a 12-h incubation by liquid-chromatography-coupled mass spectrometry (LC–MS); type: ADME; set-up: dose 2 uM; conditions: 2 µM
T3 sequence (A4ED08 whole entry): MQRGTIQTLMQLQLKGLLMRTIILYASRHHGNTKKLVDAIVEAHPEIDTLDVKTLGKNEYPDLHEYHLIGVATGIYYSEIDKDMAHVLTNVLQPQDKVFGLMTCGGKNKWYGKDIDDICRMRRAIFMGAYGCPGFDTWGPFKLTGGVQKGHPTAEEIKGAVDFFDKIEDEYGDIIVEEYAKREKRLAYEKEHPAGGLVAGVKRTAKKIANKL

[8] = molecular target: T4, GDSL-like protein (Collinsella aerofaciens, UniProt A4E7D0); experiment: as §2; type: ADME; set-up: dose 2 uM; conditions: 2 µM
T4 sequence (A4E7D0 whole entry): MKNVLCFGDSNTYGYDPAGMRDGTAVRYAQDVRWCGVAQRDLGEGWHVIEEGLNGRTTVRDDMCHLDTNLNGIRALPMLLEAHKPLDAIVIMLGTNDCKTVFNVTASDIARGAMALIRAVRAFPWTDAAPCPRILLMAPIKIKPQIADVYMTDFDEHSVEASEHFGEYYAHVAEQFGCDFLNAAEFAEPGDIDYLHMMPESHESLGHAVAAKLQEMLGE

[9] = molecular target: T5, Diguanylate cyclase (Collinsella aerofaciens, UniProt A4EB91); experiment: as §2; type: ADME; set-up: dose 2 uM; conditions: 2 µM
T5 sequence (A4EB91 whole entry): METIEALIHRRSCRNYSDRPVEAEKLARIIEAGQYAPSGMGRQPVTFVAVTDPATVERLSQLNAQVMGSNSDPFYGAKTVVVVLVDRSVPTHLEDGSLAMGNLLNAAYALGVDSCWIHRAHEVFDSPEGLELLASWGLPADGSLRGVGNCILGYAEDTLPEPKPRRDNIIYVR

[10] = molecular target: T6, Pyridine nucleotide-disulfide oxidoreductase (Collinsella aerofaciens, UniProt A4EBM5); experiment: as §2; type: ADME; set-up: dose 2 uM; conditions: 2 µM
T6 sequence (A4EBM5 whole entry): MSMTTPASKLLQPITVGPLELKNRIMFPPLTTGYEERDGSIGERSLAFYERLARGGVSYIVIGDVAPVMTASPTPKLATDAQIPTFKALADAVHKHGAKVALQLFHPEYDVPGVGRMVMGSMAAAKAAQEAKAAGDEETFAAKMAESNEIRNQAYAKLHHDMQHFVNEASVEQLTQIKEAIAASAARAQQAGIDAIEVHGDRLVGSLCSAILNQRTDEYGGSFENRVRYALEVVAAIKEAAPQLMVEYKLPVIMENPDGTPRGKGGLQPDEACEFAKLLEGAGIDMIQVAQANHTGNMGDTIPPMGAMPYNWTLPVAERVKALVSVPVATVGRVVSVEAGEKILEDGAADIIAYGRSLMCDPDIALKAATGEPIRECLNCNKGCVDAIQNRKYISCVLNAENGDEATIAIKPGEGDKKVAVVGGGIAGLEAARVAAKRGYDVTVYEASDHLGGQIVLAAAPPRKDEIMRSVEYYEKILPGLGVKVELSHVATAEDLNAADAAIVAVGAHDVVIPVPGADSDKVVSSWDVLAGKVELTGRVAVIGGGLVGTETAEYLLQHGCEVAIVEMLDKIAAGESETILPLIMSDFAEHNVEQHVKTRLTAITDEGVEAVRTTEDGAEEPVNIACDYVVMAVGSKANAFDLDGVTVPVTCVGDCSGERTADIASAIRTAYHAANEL

[11] = as §2; conditions: 2 µM
[12] = The drug is tested on Bacteroides ovatus strain: ATCC8483 for biotransformation. The drug concentrations were measured before and after a 12-h incubation by liquid-chromatography-coupled mass spectrometry (LC–MS); conditions: 2 µM
[13] = The drug is tested on Bifidobacterium longum subsp. Infantis strain: CCUG52486 for biotransformation. The drug concentrations were measured before and after a 12-h incubation by liquid-chromatography-coupled mass spectrometry (LC–MS); conditions: 2 µM

Row | Compound | Bacterial Biotransformation [1] | Bacterial Biotransformation [2] | Bacterial Biotransformation [3] | Bacterial Biotransformation [4] | Bacterial Biotransformation [5] | Bacterial Biotransformation [6] | Bacterial Biotransformation [7] | Bacterial Biotransformation [8] | Bacterial Biotransformation [9] | Bacterial Biotransformation [10] | Bacterial Biotransformation [11] | Bacterial Biotransformation [12] | Bacterial Biotransformation [13]
1 | Nc1ccc(/N=N/c2ccccc2)c(N)n1 [PHENAZOPYRIDINE] | Compound NOT metabolized | Compound NOT metabolized | Compound NOT metabolized | Compound metabolized | Compound metabolized | Compound metabolized | Compound metabolized | Compound NOT metabolized | Compound NOT metabolized | Compound NOT metabolized | Compound metabolized | Compound metabolized | 
2 | C[C@@H]1CC[C@H]2[C@@H](C)C(=O)O[C@@H]3O[C@@]4(C)CC[C@@H]1[C@]32OO4 [ARTEMISININ] | Compound metabolized | Compound NOT metabolized | Compound NOT metabolized | Compound metabolized | Compound metabolized | Compound metabolized | Compound NOT metabolized | Compound NOT metabolized | Compound NOT metabolized | Compound NOT metabolized | Compound metabolized | Compound metabolized | Compound metabolized
3 | CC(=O)SCC(Cc1ccccc1)C(=O)NCC(=O)OCc1ccccc1 (configuration not stated) [RACECADOTRIL] | Compound metabolized | Compound NOT metabolized | Compound metabolized | Compound metabolized | Compound NOT metabolized | Compound metabolized | Compound NOT metabolized | Compound NOT metabolized | Compound NOT metabolized | Compound NOT metabolized | Compound NOT metabolized | Compound metabolized | Compound metabolized
4 | CCN(CC)C(=O)/C(C#N)=C/c1cc(O)c(O)c([N+](=O)[O-])c1 [ENTACAPONE] | Compound metabolized | Compound metabolized | Compound NOT metabolized | Compound metabolized | Compound metabolized | Compound metabolized | Compound NOT metabolized | Compound NOT metabolized | Compound metabolized | Compound NOT metabolized | Compound metabolized | Compound metabolized | Compound metabolized
5 | CCS(=O)(=O)CCn1c([N+](=O)[O-])cnc1C [TINIDAZOLE] | Compound NOT metabolized | Compound metabolized | Compound NOT metabolized | Compound metabolized | Compound metabolized | Compound metabolized | Compound NOT metabolized | Compound NOT metabolized |  | Compound metabolized | Compound metabolized | Compound metabolized | Compound metabolized
6 | CC(=O)Oc1ccc(C(c2ccc(OC(C)=O)cc2)c2ccccn2)cc1 [BISACODYL] | Compound metabolized | Compound NOT metabolized | Compound metabolized | Compound metabolized | Compound metabolized | Compound metabolized | Compound NOT metabolized | Compound metabolized | Compound NOT metabolized | Compound NOT metabolized | Compound metabolized | Compound metabolized | Compound metabolized
7 | COc1ccnc(C[S+]([O-])c2nc3ccc(OC(F)F)cc3[nH]2)c1OC (configuration not stated) [PANTOPRAZOLE] | Compound metabolized | Compound NOT metabolized | Compound NOT metabolized | Compound metabolized | Compound metabolized | Compound metabolized | Compound NOT metabolized | Compound NOT metabolized | Compound NOT metabolized | Compound NOT metabolized | Compound metabolized | Compound metabolized | Compound metabolized
8 | O=C(O)c1cc(/N=N/c2ccc(S(=O)(=O)Nc3ccccn3)cc2)ccc1O [SULFASALAZINE] | Compound NOT metabolized | Compound metabolized |  | Compound metabolized | Compound metabolized | Compound metabolized | Compound NOT metabolized |  | Compound NOT metabolized | Compound NOT metabolized | Compound metabolized | Compound metabolized | Compound metabolized
9 | CCOC(=O)C1=C(C)NC(C)=C(C(=O)OC)C1c1cccc([N+](=O)[O-])c1 (configuration not stated) [NITRENDIPINE] | Compound metabolized | Compound metabolized | Compound metabolized | Compound metabolized | Compound metabolized | Compound metabolized | Compound NOT metabolized | Compound NOT metabolized | Compound metabolized | Compound NOT metabolized | Compound metabolized |  | Compound metabolized
